From US12673044B2, “Methods of treating borderline personality disorder” (ORYZON GENOMICS, S.A., priority 2019, dated 2026)

How the values were obtained:
[1] = system: BPD patients; assay: Phase IIa REIMAGINE trial, BPD cohort: efficacy by Borderline Personality Disorder Checklist (BPDCL); assay type: in vivo, human; settings: 5 BPD patients, 1.2 mg/day oral free base, 5 days on/2 days off, 8 weeks, paired one-tail t-test
Description: (§1) As part of a Phase IIa clinical trial (REIMAGINE trial, EudraCT number 2018-002140-88) to evaluate the safety, tolerability and efficacy of the KDM1A inhibitor vafidemstat to treat aggression in adult population in patients with different CNS disorders, a cohort of BPD patients was recruited and treated with vafidemstat for 8 weeks. A summary of the protocol of this clinical trial and results obtained in the BPD cohort are provided below.
(§2) Reimagine is a unicenter, open-label, 1-arm, 8-week clinical study to evaluate the efficacy, safety and tolerability of vafidemstat in aggression in adult population with Alzheimer's Disease (AD), Lewy Body Dementia (LBD), Adult attention Deficit Hyperactivity Disorder (ADHD), Borderline Personality Disorder (BPD) and Autism Spectrum Disorder (ASD). Six patients to be recruited per disorder.
Treatment: All patients received vafidemstat (as free base) at a dose of 1.2 mg/day, administered orally as a single capsule, in a 5 days on/2 days off schedule, during 8 weeks.
Six BPD patients were recruited, but there was one drop-out, and therefore the results as described herein correspond to the 5 BPD subjects eligible for analysis. A summary of the patients recruited in this BPD cohort (demographic data at baseline) can be found in Table 1.
Assessment of efficacy of treatment in BPD patients was performed using a validated scale specific for BPD, the Borderline Personality Disorder Checklist (BPDCL). The BPDCL is an instrument specifically designed to evaluate the subjective burden of BPD in the last month and also to rate BPD changes after therapeutic intervention. Originally developed in Dutch, the BPDCL has been subsequently translated into English, Spanish and other languages, and has been applied to clinical and non-clinical samples. […]
One can use the total sum score on the BPDCL (BPDCL Total Score) as an overall index of the subjective burden caused by BPD symptoms, or one can use sum scores for one or more of the separate BPD domains. […] Efficacy assessments were always measured prior to treatment administration on the corresponding visit day. […]

[2] = system: BPD patients; assay: Phase IIa REIMAGINE trial, BPD cohort: safety and tolerability; assay type: in vivo, human; settings: 1.2 mg/day oral free base, 5 days on/2 days off, 8 weeks; without significant adverse events
Description: as §1, §2
Main objective of the trial: To evaluate the safety and tolerability of vafidemstat in adult population with Alzheimer's Disease (AD), Lewy Body Dementia (LBD), Adult attention deficit hyperactivity disorder (ADHD), Borderline Personality Disorder (BPD), Autism Spectrum Disorder (ASD)
Treatment: All patients received vafidemstat (as free base) at a dose of 1.2 mg/day, administered orally as a single capsule, in a 5 days on/2 days off schedule, during 8 weeks. […]

Nc1nnc(CN[C@@H]2C[C@H]2c2ccc(OCc3ccccc3)cc2)o1 [vafidemstat, 5-((((1R,2S)-2-(4-(benzyloxy)phenyl)cyclopropyl)amino)methyl)-1,3,4-oxadiazol-2-amine]
Aggression-related BPDCL domains combined score (anger control, impulsivity, (para)suicide), change from visit 1 (baseline) to visit 7 ([1]; p=0.0029, FIG. 1): statistically significant reduction | BPDCL Total score, change from visit 1 (baseline) to visit 7 ([1]; p=0.0048, FIG. 2): statistically significant reduction | Non-aggression-related BPDCL domains combined score (abandonment, relationships, identity disturbance, affective instability, emptiness, dissociation), change from visit 1 (baseline) to visit 7 ([1]; p=0.0234, FIG. 3): statistically significant reduction | Safety and tolerability of treatment in BPD patients [2]: safe and well tolerated
